According to PubChem BioAssay (NCI):
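Grown in 96-well plates, cells were treated for 48 hours with each compound at five concentrations. Insufficient inhibition: endpoint recorded as highest concentration tested. TGI denotes the concentration required for complete inhibition of growth.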

tested on: HCT-116 colon; assay: NCI anticancer screen, dose series, 48 h

**Q.** How did the TGI turn out when `COc1ccc(N2C(=O)CSC2c2c[nH]c3ccccc23)cc1` (configuration not stated) was run?
**A.** > 100 µM

**Q.** With `COC1C=COC2(C)Oc3c(C)c(O)c4c(O)c(c(C5SCCS5)c(O)c4c3C2=O)NC(=O)C(C)=C/C=C\C(C)C2OC(C)(C)OC(C2C)C(C)C(OC(C)=O)C1C` (configuration not stated) as the compound, how does the TGI read?
**A.** > 100 µM

**Q.** How did the TGI turn out when `OCc1ccc(C2CC(c3ccco3)=NN2c2ccccc2)o1` (configuration not stated) was run?
**A.** > 100 µM

**Q.** With `COc1ccc(C2COc3cc(O)c(O)cc3C2)cc1` (configuration not stated) as the compound, how does the TGI read?
**A.** 42.1 µM

**Q.** `CCCCN=C(c1ccccc1)N1CCOCC1` was tested. Which TGI did it give?
**A.** > 100 µM

**Q.** With `CSc1ncnc2c1ncn2CCC#N` as the compound, how does the TGI read?
**A.** > 100 µM

**Q.** With `CCOC(=O)c1ccc(C)c(N=NN(C)C)c1` as the compound, how does the TGI read?
**A.** > 100 µM

**Q.** With `CC(C)CC(O)P(=O)(O)O` (configuration not stated) as the compound, how does the TGI read?
**A.** > 100 µM

**Q.** How did the TGI turn out when `CC1CCCC(CC(=O)O)(CC(=O)O)C1` (configuration not stated) was run?
**A.** > 100 µM

**Q.** How did the TGI turn out when `COc1cc2c3c(c1OC)C1(C=CC(=O)C=C1)C[C@H]3N(C)CC2` was run?
**A.** > 100 µM

**Q.** For `CC(C)(Cl)C(Br)CCC(=CCCl)CBr` (mixture of isomers), which TGI is on record?
**A.** 3.67 µM

**Q.** How did the TGI turn out when `O=NN(CCCl)C(=O)NC1CCC(O)CC1` (configuration not stated) was run?
**A.** > 94.4 µM

**Q.** For `Nc1[nH]nc2nc3ccc(C(F)(F)F)cc3nc12`, which TGI is on record?
**A.** > 100 µM

**Q.** Which TGI does the source give for `CCC(=O)ONC(=O)Cn1ccc([N+](=O)[O-])n1` here?
**A.** > 100 µM

**Q.** How did the TGI turn out when `Cc1ccc(O)c(-c2cscn2)c1` was run?
**A.** > 100 µM

**Q.** Which TGI does the source give for `O=C(CN(c1ccccc1)c1ccccc1)n1nnc2ccccc21` here?
**A.** 84.7 µM

**Q.** How did the TGI turn out when `CSc1sc2ccccc2[s+]1` was run?
**A.** > 100 µM

**Q.** For `COc1cc(OC)c(C2c3cc4c(cc3OC(N3CCCC3)C2C)OCO4)c(OC)c1` (configuration not stated), which TGI is on record?
**A.** 16.7 µM

**Q.** How did the TGI turn out when `Cc1ccc(S(=O)(=O)C(C#N)c2nc3ccccc3nc2-n2ccnc2)cc1` (configuration not stated) was run?
**A.** > 100 µM

**Q.** With `C=C1CN2CC(=C)CN(C1)CS(=O)(=O)N1CC(=C)CN(CC(=C)C1)S(=O)(=O)N1CC(=C)CN(CC(=C)C1)S(=O)(=O)C2` as the compound, how does the TGI read?
**A.** > 100 µM

**Q.** With `C=C(Cl)C(C)(Cl)CCC(Br)C(C)(C)Cl` (configuration not stated) as the compound, how does the TGI read?
**A.** 29.5 µM

**Q.** How did the TGI turn out when `COC(=O)C1CCCN1C(=O)C(Cc1cn(S(=O)(=O)c2ccc(C)cc2)cn1)NC(=O)OC(C)(C)C` (configuration not stated) was run?
**A.** > 100 µM

**Q.** Which TGI does the source give for `Nc1ccc(S2(c3ccc(N)cc3)C=C(c3ccccc3)C(c3ccccc3)=C2)cc1` here?
**A.** > 100 µM

**Q.** Which TGI does the source give for `O=C1C(=Cc2ccccc2O)N=C(c2ccccc2)N1n1c(-c2ccccc2)nc2ccccc2c1=O` here?
**A.** 89.8 µM

**Q.** Which TGI does the source give for `COC(=O)C1=C(C)NC(C)=C(C(=O)OC)C1c1nc2sccn2c1[N+](=O)[O-]` here?
**A.** > 100 µM

**Q.** How did the TGI turn out when `O=c1c(C(c2ccc(Cl)cc2)c2c(O)c3ccccc3n(-c3ccccc3)c2=O)c(O)c2ccccc2n1-c1ccccc1` was run?
**A.** > 100 µM

**Q.** Which TGI does the source give for `CCNC(=O)Nc1cccc(NC(=O)NCC)n1` here?
**A.** > 100 µM

tested on: SN12C renal; assay: NCI anticancer screen, dose series, 48 h

**Q.** Which TGI does the source give for `COc1ccc(C2OC(c3ccncc3)=NN2C)cc1OC` (configuration not stated) here?
**A.** > 100 µM

**Q.** With `COc1c(C(C)C)cc2c3c1OC(=O)[C@@]31CCCC(C)(C)C1CC2` (some centres not stated) as the compound, how does the TGI read?
**A.** > 100 µM

**Q.** `COc1ccc(N2C(=O)CSC2c2c[nH]c3ccccc23)cc1` (configuration not stated) was tested. Which TGI did it give?
**A.** > 100 µM

**Q.** For `COC1C=COC2(C)Oc3c(C)c(O)c4c(O)c(c(C5SCCS5)c(O)c4c3C2=O)NC(=O)C(C)=C/C=C\C(C)C2OC(C)(C)OC(C2C)C(C)C(OC(C)=O)C1C` (configuration not stated), which TGI is on record?
**A.** 16.6 µM

**Q.** Which TGI does the source give for `OCc1ccc(C2CC(c3ccco3)=NN2c2ccccc2)o1` (configuration not stated) here?
**A.** > 100 µM

**Q.** For `COc1ccc(C2COc3cc(O)c(O)cc3C2)cc1` (configuration not stated), which TGI is on record?
**A.** 166 µM

**Q.** With `CCCCN=C(c1ccccc1)N1CCOCC1` as the compound, how does the TGI read?
**A.** > 100 µM

**Q.** `CSc1ncnc2c1ncn2CCC#N` was tested. Which TGI did it give?
**A.** > 100 µM

**Q.** For `CCOC(=O)c1ccc(C)c(N=NN(C)C)c1`, which TGI is on record?
**A.** > 100 µM

**Q.** Which TGI does the source give for `CC(C)CC(O)P(=O)(O)O` (configuration not stated) here?
**A.** > 100 µM

**Q.** With `CC1CCCC(CC(=O)O)(CC(=O)O)C1` (configuration not stated) as the compound, how does the TGI read?
**A.** > 100 µM

**Q.** `COc1cc2c3c(c1OC)C1(C=CC(=O)C=C1)C[C@H]3N(C)CC2` was tested. Which TGI did it give?
**A.** > 100 µM

**Q.** `CC(C)(Cl)C(Br)CCC(=CCCl)CBr` (mixture of isomers) was tested. Which TGI did it give?
**A.** 7.06 µM

**Q.** With `O=NN(CCCl)C(=O)NC1CCC(O)CC1` (configuration not stated) as the compound, how does the TGI read?
**A.** > 100 µM

**Q.** Which TGI does the source give for `Nc1[nH]nc2nc3ccc(C(F)(F)F)cc3nc12` here?
**A.** > 100 µM

**Q.** How did the TGI turn out when `CCC(=O)ONC(=O)Cn1ccc([N+](=O)[O-])n1` was run?
**A.** > 100 µM

**Q.** For `Cc1ccc(O)c(-c2cscn2)c1`, which TGI is on record?
**A.** > 100 µM

**Q.** With `O=C(CN(c1ccccc1)c1ccccc1)n1nnc2ccccc21` as the compound, how does the TGI read?
**A.** > 100 µM

**Q.** With `CSc1sc2ccccc2[s+]1` as the compound, how does the TGI read?
**A.** > 100 µM

**Q.** With `COc1cc(OC)c(C2c3cc4c(cc3OC(N3CCCC3)C2C)OCO4)c(OC)c1` (configuration not stated) as the compound, how does the TGI read?
**A.** 47.9 µM

**Q.** With `Cc1ccc(S(=O)(=O)C(C#N)c2nc3ccccc3nc2-n2ccnc2)cc1` (configuration not stated) as the compound, how does the TGI read?
**A.** > 100 µM

**Q.** For `C=C1CN2CC(=C)CN(C1)CS(=O)(=O)N1CC(=C)CN(CC(=C)C1)S(=O)(=O)N1CC(=C)CN(CC(=C)C1)S(=O)(=O)C2`, which TGI is on record?
**A.** > 100 µM

**Q.** Which TGI does the source give for `C=C(Cl)C(C)(Cl)CCC(Br)C(C)(C)Cl` (configuration not stated) here?
**A.** 31.6 µM

**Q.** Which TGI does the source give for `COC(=O)C1CCCN1C(=O)C(Cc1cn(S(=O)(=O)c2ccc(C)cc2)cn1)NC(=O)OC(C)(C)C` (configuration not stated) here?
**A.** > 100 µM

**Q.** How did the TGI turn out when `Nc1ccc(S2(c3ccc(N)cc3)C=C(c3ccccc3)C(c3ccccc3)=C2)cc1` was run?
**A.** > 100 µM

**Q.** How did the TGI turn out when `O=C1C(=Cc2ccccc2O)N=C(c2ccccc2)N1n1c(-c2ccccc2)nc2ccccc2c1=O` was run?
**A.** > 100 µM

**Q.** How did the TGI turn out when `CC(=O)O[C@]12CCCCCC1C1(O)C(O)CCCC[C@H]12` (some centres not stated) was run?
**A.** > 100 µM

**Q.** Which TGI does the source give for `COC(=O)C1=C(C)NC(C)=C(C(=O)OC)C1c1nc2sccn2c1[N+](=O)[O-]` here?
**A.** > 100 µM

**Q.** Which TGI does the source give for `O=c1c(C(c2ccc(Cl)cc2)c2c(O)c3ccccc3n(-c3ccccc3)c2=O)c(O)c2ccccc2n1-c1ccccc1` here?
**A.** > 100 µM

**Q.** `CCNC(=O)Nc1cccc(NC(=O)NCC)n1` was tested. Which TGI did it give?
**A.** > 100 µM
